Measurements published in US20120232073A1, “FUSED BICYCLIC PYRIMIDINE DERIVATIVES AND METHODS OF USE THEREOF” (priority 2009, published 2012).

These molecules were tested against T1, human GPR119 (Homo sapiens, UniProt Q8TDV5) (assay: cAMP assay (LANCE cAMP kit), activation of GPR119). Settings: HEK293 cells expressing human GPR119; increase in cAMP levels.
T1 construct: expressed in transfected cells; host or cells: HEK293
T1 sequence (Q8TDV5 1-335): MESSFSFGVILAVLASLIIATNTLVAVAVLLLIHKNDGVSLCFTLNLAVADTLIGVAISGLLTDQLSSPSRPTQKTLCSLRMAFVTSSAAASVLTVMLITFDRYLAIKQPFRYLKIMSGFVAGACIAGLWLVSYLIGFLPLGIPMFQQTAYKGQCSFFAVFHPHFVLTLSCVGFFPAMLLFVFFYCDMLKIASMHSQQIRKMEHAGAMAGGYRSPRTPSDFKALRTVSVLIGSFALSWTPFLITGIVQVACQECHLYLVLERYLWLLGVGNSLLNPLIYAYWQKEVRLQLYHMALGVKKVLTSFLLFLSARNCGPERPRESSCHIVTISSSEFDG
Format: cell-based
Protocol: The ability of illustrative compounds of the invention to activate GPR119 and stimulate increases in cAMP levels was determined using the LANCE™ cAMP kit (Perkin Elmer). HEK293 cells expressing human GPR119 were maintained in culture flasks at 37° C./5% CO2 in DMEM containing 10% fetal bovine serum, 100 U/ml Pen/Strep, and 0.5 mg/ml geneticin. The media was changed to Optimem and cells were incubated overnight at 37° C./5% CO2. The Optimem was then aspirated and the cells were removed from the flasks using room temperature Hank's balanced saline solution (HBSS). The cells were pelleted using centrifugation (1300 rpm, 7 minutes, room temperature), then resuspended in stimulation buffer (HBSS, 0.1% BSA, 5 mM HEPES, 15 μM RO-20) at 2.5×10^6 cells/mL. Alexa Fluor 647-anti cAMP antibody (1:100) was then added to the cell suspension and incubated for 30 minutes. A representative Fused Bicyclic Pyrimidine Derivative (6 μl at 2× concentration) in stimulation buffer containing 2% DMSO were then added to white 384 well Matrix plates. Cell suspension mix (6 μl) was added to each well and incubated with the Fused Bicyclic Pyrimidine Derivative for 30 minutes. A cAMP standard curve was also created in each assay according to the kit protocol. Standard concentrations of cAMP in stimulation buffer (6 μl) were added to white 384 well plates. Subsequently, 6 μl of 1:100 anti-cAMP antibody was added to each well. Following the 30 minute incubation period, 12 μl of detection mix (included in kit) was added to all wells and incubated for 2-3 hours at room temperature. Fluorescence was detected on the plates using an Envision instrument. The level of cAMP in each well is determined by extrapolation from the cAMP standard curve.

Structure (SMILES)	EC50
Cc1cccc(-n2ccc3c(OC4C5COCC4CN(C(=O)OC(C)(C)C)C5)ncnc32)c1C#N (stereo not drawn) [Compound 23]	50 to 100 nM
Cc1c(F)ccc(-n2ccc3c(OC4C5COCC4CN(C(=O)OC(C)(C)C)C5)ncnc32)c1C#N (stereo not drawn) [Compound 20]	100 to 500 nM
CC1(OC(=O)N2CC3COCC(C2)C3Oc2ncnc3c2cnn3-c2ccc(C#N)cc2Cl)CC1 (stereo not drawn) [Compound 40]	< 50 nM
CC1(OC(=O)N2CC3COCC(C2)C3Oc2ncnc3c2ccn3-c2ccc(S(C)(=O)=O)cc2F)CC1 (stereo not drawn) [Compound 28]	100 to 500 nM
CC1(OC(=O)N2CC3COCC(C2)C3Oc2ncnc3c2cnn3-c2ccc(-c3ncco3)cc2F)CC1 (stereo not drawn) [Compound 49]	100 to 500 nM
Cc1c(F)ccc(-n2ccc3c(OC4C5COCC4CN(C(=O)OC(C)(C)C)C5)ncnc32)c1C#N (stereo not drawn) [Compound 21]	50 to 100 nM
CC1(OC(=O)N2CC3COCC(C2)C3Oc2ncnc3c2ncn3-c2ccc(Br)cc2F)CC1 (stereo not drawn) [Compound 47]	100 to 500 nM
CC1(OC(=O)N2CC3COCC(C2)C3Oc2ncnc3c2cnn3-c2ccc(F)cc2F)CC1 (stereo not drawn) [Compound 45]	100 to 500 nM
CC1(OC(=O)N2CC3COCC(C2)C3Oc2ncnc3c2nnn3-c2ccc(C#N)cc2Cl)CC1 (stereo not drawn) [Compound 52]	50 to 100 nM
CC(C)c1noc(N2CC3COCC(C2)C3Oc2ncnc3c2ccn3-c2ccc(F)cc2F)n1 (stereo not drawn) [Compound 29]	100 to 500 nM
CC(C)(C)OC(=O)N1CC2COCC(C1)C2Oc1ncnc2c1ccn2-c1ccc(S(C)(=O)=O)cc1F (stereo not drawn) [Compound 25]	100 to 500 nM
CC(C)(C)OC(=O)N1CC2COCC(C1)C2Oc1ncnc2c1nnn2-c1ccc(C#N)cc1Cl (stereo not drawn) [Compound 51]	100 to 500 nM
CC1OC(C)C2CN(C(=O)OC3(C)CC3)CC1C2Oc1ncnc2c1cnn2-c1ccc(C#N)cc1F (stereo not drawn) [Compound 38]	< 50 nM
Cc1nc2c(OC3C4COCC3CN(C(=O)OC3(C)CC3)C4)ncnc2n1-c1ccc(C#N)cc1F (stereo not drawn) [Compound 42]	500 to 1000 nM
CC1(OC(=O)N2CC3COCC(C2)C3Oc2ncnc3c2ncn3-c2ccc(C#N)cc2Cl)CC1 (stereo not drawn) [Compound 43]	100 to 500 nM
CC1(OC(=O)N2CC3COCC(C2)C3Oc2ncnc3c2ccn3-c2c(F)cccc2F)CC1 (stereo not drawn) [Compound 19]	< 50 nM
Fc1cnc(N2CC3COCC(C2)C3Oc2ncnc3c2ccn3-c2ccc(F)cc2F)nc1 (stereo not drawn) [Compound 12]	50 to 100 nM
CC1(OC(=O)N2CC3COCC(C2)C3Oc2ncnc3c2[nH]c(=O)n3-c2ccc(C#N)cc2F)CC1 (stereo not drawn) [Compound 41]	500 to 1000 nM
CC(C)(C)OC(=O)N1CC2COCC(C1)C2Oc1ncnc2c1ccn2-c1c(F)cccc1F (stereo not drawn) [Compound 14]	< 50 nM
Cc1cccc(-n2ccc3c(OC4C5COCC4CN(C(=O)OC4(C)CC4)C5)ncnc32)c1C#N (stereo not drawn) [Compound 24]	50 to 100 nM
Cc1c(F)ccc(-n2ccc3c(OC4C5COCC4CN(C(=O)OC(C)(C)C)C5)ncnc32)c1F (stereo not drawn) [Compound 17]	50 to 100 nM
CS(=O)(=O)c1ccc(-n2ccc3c(OC4C5COCC4CN(c4ncc(Cl)cn4)C5)ncnc32)c(F)c1 (stereo not drawn) [Compound 27]	< 50 nM
CC(C)OC(=O)N1CC2COCC(C1)C2Oc1ncnc2c1ccn2-c1ccc(C#N)cc1F (stereo not drawn) [Compound 3]	< 50 nM
CC(C)(C)OC(=O)N1CC2COCC(C1)C2Oc1ncnc2c1ccn2-c1ccc(S(C)(=O)=O)cc1F (stereo not drawn) [Compound 26]	100 to 500 nM
CC1(OC(=O)N2CC3COCC(C2)C3Oc2ncnc3c2cnn3-c2ccc(C#N)cc2F)CC1 (stereo not drawn) [Compound 37]	< 50 nM
CC1(OC(=O)N2CC3COCC(C2)C3Oc2ncnc3c2ccn3-c2ccc(C#N)cc2F)CC1 (stereo not drawn) [Compound 5]	< 50 nM
CC1(OC(=O)N2CC3COCC(C2)C3Oc2ncnc3c2ccn3-c2ccc(F)cc2F)CC1 (stereo not drawn) [Compound 8]	< 50 nM

Structure (SMILES)	EC50
CC(C)(C)OC(=O)N1CC2COCC(C1)C2Oc1ncnc2c1ccn2-c1ccc(F)cc1F (stereo not drawn) [Compound 7]	< 50 nM
CC(C)(C)OC(=O)N1CC2COCC(C1)C2Oc1ncnc2c1OCCN2c1ccc(C#N)cc1F (stereo not drawn) [Compound 53]	100 to 500 nM
Cn1cc(-c2ccc(-n3ncc4c(OC5C6COCC5CN(C(=O)OC5(C)CC5)C6)ncnc43)c(F)c2)cn1 (stereo not drawn) [Compound 48]	100 to 500 nM
CC1(OC(=O)N2CC3COCC(C2)C3Oc2ncnc3c2cnn3-c2ccc(-c3cscn3)cc2F)CC1 (stereo not drawn) [Compound 50]	100 to 500 nM
CC1(OC(=O)N2CC3COCC(C2)C3Oc2ncnc3c2cnn3-c2ccc(F)cc2F)CC1 (stereo not drawn) [Compound 46]	100 to 500 nM
Fc1ccc(N2CCc3c(OC4C5COCC4CN(c4ncc(Cl)cn4)C5)ncnc32)c(F)c1 (stereo not drawn) [Compound 13]	100 to 500 nM
CC(C)(C)OC(=O)N1CC2COCC(C1)C2Oc1ncnc2c1ccn2-c1c(F)cc(F)cc1F (stereo not drawn) [Compound 33]	< 50 nM
CC1(OC(=O)N2CC3COCC(C2)C3Oc2ncnc3c2CCN3c2ccc(F)cc2F)CC1 (stereo not drawn) [Compound 11]	< 50 nM
CCCOC(=O)N1CC2COCC(C1)C2Oc1ncnc2c1ccn2-c1ccc(C#N)cc1F (stereo not drawn) [Compound 4]	< 50 nM
Cc1c(F)ccc(-n2ccc3c(OC4C5COCC4CN(C(=O)OC(C)(C)C)C5)ncnc32)c1F (stereo not drawn) [Compound 16]	< 50 nM
Cc1c(F)ccc(-n2ccc3c(OC4C5COCC4CN(C(=O)OC4(C)CC4)C5)ncnc32)c1C#N (stereo not drawn) [Compound 22]	50 to 100 nM
Cc1c(F)ccc(-n2ccc3c(OC4C5COCC4CN(C(=O)OC4(C)CC4)C5)ncnc32)c1F (stereo not drawn) [Compound 18]	< 50 nM
CC(C)(C)OC(=O)N1CC2COCC(C1)C2Oc1ncnc2c1ccn2-c1ccc(C#N)cc1F (stereo not drawn) [Compound 2]	< 50 nM
CC(C)(C)OC(=O)N1CC2COCC(C1)C2Oc1ncnc2c1ccn2-c1c(F)cc(F)cc1F (stereo not drawn) [Compound 32]	< 50 nM
CC1OC(C)C2CN(C(=O)OC3(C)CC3)CC1C2Oc1ncnc2c1cnn2-c1ccc(C#N)cc1F (stereo not drawn) [Compound 39]	100 to 500 nM
CC1(OC(=O)N2CC3COCC(C2)C3Oc2ncnc3c2cnn3-c2ccc(C#N)cc2F)CC1 (stereo not drawn) [Compound 36]	< 50 nM
CC(C)OC(=O)N1CC2COCC(C1)C2Oc1ncnc2c1OCCN2c1ccc(C#N)cc1F (stereo not drawn) [Compound 55]	100 to 500 nM
CCCc1cnc(N2CC3COCC(C2)C3Oc2ncnc3c2ccn3-c2ccc(S(C)(=O)=O)cc2F)nc1 (stereo not drawn) [Compound 31]	50 to 100 nM
CC(C)OC(=O)N1CC2COCC(C1)C2Oc1ncnc2c1ncn2-c1ccc(C#N)cc1Cl (stereo not drawn) [Compound 44]	100 to 500 nM
CS(=O)(=O)c1ccc(-n2ccc3c(OC4C5COCC4CN(c4ncc(F)cn4)C5)ncnc32)c(F)c1 (stereo not drawn) [Compound 30]	50 to 100 nM
CC(C)(C)OC(=O)N1CC2COCC(C1)C2Oc1ncnc2c1ccn2-c1ccc(F)cc1F (stereo not drawn) [Compound 6]	< 50 nM
CC(C)(C)OC(=O)N1CC2COCC(C1)C2Oc1ncnc2c1CCN2c1ccc(F)cc1F (stereo not drawn) [Compound 10]	100 to 500 nM
CC1(OC(=O)N2CC3COCC(C2)C3Oc2ncnc3c2OCCN3c2ccc(C#N)cc2F)CC1 (stereo not drawn) [Compound 54]	100 to 500 nM
CC1(OC(=O)N2CC3COCC(C2)C3Oc2ncnc3c2ncn3-c2ccc(C#N)cc2F)CC1 (stereo not drawn) [Compound 35]	50 to 100 nM
CC(C)(C)OC(=O)N1CC2COCC(C1)C2Oc1ncnc2c1ccn2-c1ccc(C#N)cc1F (stereo not drawn) [Compound 1]	< 50 nM
CC(C)(C)OC(=O)N1CC2COCC(C1)C2Oc1ncnc2c1CCN2c1ccc(F)cc1F (stereo not drawn) [Compound 9]	< 50 nM
CS(=O)(=O)c1ccc(-n2cnc3c(OC4C5COCC4CN(c4ncc(Cl)cn4)C5)ncnc32)c(F)c1 (stereo not drawn) [Compound 34]	500 to 1000 nM
